The results in this text go back to the supplement of paper PMC4237247.

Assay [1] relates to HeLa. The assay can be described thus: mitotic arrest IC50 (G2/M DNA content, 20 h); higher = less potent. On the procedure:
(§1)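 HeLa cells were treated with a titration of each re-synthesised mitotic inhibitor. Mitotic arrest IC50 comes from a 20 h titration (190 pM to 10 uM) read as % G2/M by Vybrant DyeCycle Green cell cycle profiling on an Acumen cytometer. Cell viability IC50 comes from a 72 h titration (12.2 nM to 100 uM) read by CellTiter-Glo ATP luminescence, with curves fitted in CDD software. The maximal % of cells arrested in mitosis within the titration is also reported.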

The subject of assay [2] is HeLa. Kind of assay: cell viability IC50 (CellTiter-Glo, 72 h); higher = less potent. How it is done: as §1
In general terms: In ATP-based viability assays light output follows the ATP content of the culture.

Assay [3] has as its system HeLa. Kind of assay: maximal percent of cells arrested in mitosis within titration; higher = stronger mitotic arrest. The note with it: 20 h. How it is done: as §1

As to `O=C(O)c1ccccc1SC1CC(=O)N(c2ccc(Br)cc2)C1=O` (stereo not drawn), the “mitotic arrest IC50” value in assay [1] amounted to 2.65 µM. For the same compound, the “cell viability IC50” value in assay [2] worked out at 2.27 µM. The same compound yielded a maximal percent in assay [3] of 70.4%.
The matching figures for `CC(=O)Nc1ccc(Nc2nc(-c3c(C)nc4ccccn34)cs2)cc1`: 0.0885 µM, 0.121 µM and 65.3%.
The corresponding values for `COC(=O)Nc1nc2cc(C(=O)c3ccccc3)ccc2[nH]1` [Mebendazole] are 0.202 µM, 0.222 µM and 76.6%.
The matching figures for `O=C(CSc1nc2ccc([N+](=O)[O-])cc2s1)c1ccc(Cl)cc1`: 9.12 µM, 12.5 µM and 61.7%.
With `COC(=O)Nc1nc2cc(C(=O)c3cccs3)ccc2[nH]1` [Nocodazole], in assay [1], the “mitotic arrest IC50” value is 0.129 µM. In addition, in assay [2], the “cell viability IC50” value worked out at 0.0456 µM. The compound also yielded a maximal percent in assay [3] of 68.5%.
Turning to `CCN(CC)CCN1C(=O)C(=O)C(=C(O)c2ccccc2)C1c1ccccc1F` (stereo not drawn), in assay [1], the “mitotic arrest IC50” value stood at 4.78 µM. In addition, the “cell viability IC50” value in assay [2] stood at 6.63 µM. Also, in assay [3], the maximal percent came out at 55.8%.
In the case of `O=c1[nH]c(/C=C/c2ccccc2)nc2ccccc12`, in assay [1], the “mitotic arrest IC50” value was 1.35 µM. In assay [2], the “cell viability IC50” value is 1.16 µM. Moreover, in assay [3], the maximal percent was 61%.
Take `COC(=O)Nc1nc2cc(Sc3ccccc3)ccc2[nH]1` [Fenbendazole]: the “mitotic arrest IC50” value in assay [1] amounted to 0.279 µM. In addition, in assay [2], the “cell viability IC50” value was 0.389 µM. This compound also registered a maximal percent in assay [3] of 62.5%.
The matching figures for `COc1cc(-c2onc3ccc(Cl)cc23)cc(OC)c1OC`: 0.539 µM, 0.47 µM and 54.8%.
Regarding `O=c1[nH]c(/C=C/c2ccccc2F)nc2ccccc12`, in assay [1], the “mitotic arrest IC50” value turned out to be 0.285 µM. The “cell viability IC50” value in assay [2] was found to be 0.72 µM. For the same compound, the maximal percent in assay [3] was 49.9%.
The corresponding values for `CC(=O)O[C@H]1C(=O)[C@@]2(C)[C@H]([C@H](OC(=O)c3ccccc3)[C@]3(O)C[C@H](OC(=O)[C@H](O)[C@@H](NC(=O)c4ccccc4)c4ccccc4)C(C)=C1C3(C)C)[C@]1(OC(C)=O)CO[C@@H]1C[C@@H]2O` [Taxol] are 0.0371 µM, 0.0273 µM and 74%.
